Values of other authors, collected in paper PMC11634579, “Network pharmacology, experimental validation and pharmacokinetics integrated strategy to reveal pharmacological mechanism of goutengsan on methamphetamine dependence” (Frontiers in Pharmacology, 2024).

Set-up: method as in Ru et al., 2014
Conditions: obtained from TCMSP database; ref Ru et al., 2014; cited from earlier work
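Throughout, for BBB (blood–brain–barrier): unitless TCMSP predicted score with screening cut-off BBB at least 0.3.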

Row | Structure (SMILES) | BBB (blood–brain–barrier) | OB% (oral bioavailability)
1 | COc1cc(O)cc2c1[C@@H]1Oc3c(ccc(O)c3CC=C(C)C)[C@@H]1CO2 [1-methoxyphaseollidin] | 0.48 | 69.98%
2 | COc1ccc(C2COc3c(ccc4c3C=CC(C)(C)O4)C2)c(O)c1O (centres unmarked) [3′-hydroxy-4′-O-methylglabridin] | 0.73 | 43.71%
3 | COc1c(O)ccc(C2COc3c(ccc4c3C=CC(C)(C)O4)C2)c1O (centres unmarked) [3′-methoxyglabridin] | 0.47 | 46.16%
4 | CC(C)[C@@H](C)/C=C/[C@@H](C)[C@H]1CC[C@H]2C3=CC[C@H]4C[C@@H](O)CC[C@]4(C)[C@H]3CC[C@]12C [5-dihydroergosterol] | 0.91 | 43.51%
5 | CCCCC[C@H](O)CC(=O)CCc1ccc(O)c(OC)c1 [6-Gingerol] | 1.22 | 61.22%
6 | COc1ccc2c(=O)c(-c3ccccc3)c(C)oc2c1 [7-methoxy-2-methyl isoflavone] | 0.56 | 42.56%
7 | CCCCCCC=CCC=CCCCCCCCCC(=O)O [10,13-eicosadienoic acid] | 0.82 | 39.99%
8 | CCC(CC[C@@H](C)[C@H]1CC[C@H]2[C@@H]3CCC4=CC(=O)CC[C@]4(C)[C@H]3CC[C@]12C)C(C)C (some centres unmarked) [24-ethylcholest-4-en-3-one] | 1.22 | 36.08%
9 | CC(C)=CCOc1c2occc2cc2ccc(=O)oc12 [Ammidin] | 0.92 | 34.55%
10 | C=C(C(=O)OC1CC2NC(C1)C1OC21)c1ccccc1 (centres unmarked) [Aponorhyoscine] | 0.40 | 66.65%
11 | CCCCC/C=C\C/C=C\C/C=C\C/C=C\CCCC(=O)O [Arachidonate] | 0.58 | 45.57%
12 | CC[C@H](CC[C@@H](C)[C@H]1CC[C@H]2[C@@H]3CC=C4C[C@@H](O)CC[C@]4(C)[C@H]3CC[C@]12C)C(C)C [Beta-sitosterol] | 0.99 | –
13 | CCCCCCCCOC(=O)c1ccccc1C(=O)OCCCC [Butyl octyl phthalate] | 0.60 | 43.74%
14 | COc1cc2c(cc1OC)[C@H]1[C@@H](C)c3ccc4c(c3CN1CC2)OCO4 [Cavidine] | 0.63 | 35.64%
15 | CC[C@@H](CC[C@@H](C)[C@H]1CC[C@H]2[C@@H]3CC=C4C[C@@H](O)CC[C@]4(C)[C@H]3CC[C@]12C)C(C)C [Clionasterol] | 1.14 | –
16 | C=C[C@H]1CN2CC[C@]3(C(=O)Nc4ccccc43)[C@@H]2C[C@@H]1/C(=C\OC)C(=O)OC [Corynoxeine] | 0.50 | 57.13%
17 | CC(C)=CCC[C@@H](C)[C@H]1CC[C@@]2(C)[C@@H]3CC[C@H]4C(C)(C)[C@@H](O)CC[C@@]45C[C@@]35CC[C@]12C [Cycloartenol] | 1.33 | –
18 | COc1cc(CNC(=O)CCCCCCC(C)C)ccc1O [Dihydrocapsaicin] | 0.47 | 47.07%
19 | CC(C)[C@@H](C)/C=C/[C@@H](C)[C@H]1CC[C@@H]2[C@]1(C)CC[C@H]1[C@]23C=C[C@]2(C[C@@H](O)CC[C@]12C)OO3 [Ergosterol peroxide] | 0.34 | 40.36%
20 | O=c1oc2ccccc2c2oc3ccccc3c(=O)c12 [Frutinone A] | 0.46 | 65.90%
21 | CC(C)=CCc1c(O)cc(O)c2c1O[C@H](c1ccccc1)CC2=O [Glabranin] | 0.31 | 52.90%
22 | CC1(C)C=Cc2c(ccc3c2OC[C@@H](c2ccc(O)cc2O)C3)O1 [Glabridin] | 0.36 | 53.25%
